Source: patent publication US5334595A, “Pyrazoloquinolones as anticancer agents” (priority 1992, dated 1994)

What was measured:
Parameters in all cases: species or system mice
[1] = tested on: lung carcinoma No. 12 (LC 12); test: In vivo antitumor assay, LC12(sc); conditions: drug iv, qd 3,5, exp 1161
Text: (§1) Mice: Inbred: C3H/He and NCR-nu; and Hybrids: B6D2F1 (C57BL/6 females×DBA/2 males, CD2F1 (Balb/c females×DBS/2 males) and B6C3fl (C57BL/6×C3H) were bred at Wayne State University from strains obtained from the Frederick Cancer Research Facility, Frederick, Maryland or purchased from commercial suppliers.
(§2) Tumors: Murine Tumor: P388 and an adriamycin-resistant (ADR) subline P388/ADR leukemia and the following transplantable solid tumors of mice were used for in vivo testing: B16 melanoma (B16), pancreatic ductal adenocarcinoma No. 03 (Pane 03), colon adenocarcinoma No. 38 (colo 38), lung carcinoma No. 12 (LC 12), mammary ductal adenocarcinoma No. 16/C (Mam16C) and an adriamycin-resistant subline Mam16C/ADR. Human tumor: A single human tumor, mammary carcinoma MX-1 was used for in vivo testing. All tumors are in the Developmental Therapeutics Program frozen tumor respository, maintained by the Biological Testing Branch, Frederick Maryland. Each has a detailed description, code identification number, and list of references at the National Tumor Repository. Murine tumors were maintained in the mouse strain of origin and were transplanted in the appropriate F1 hydrid (or the strain of origin) for therapy trials. […]
(§3) Quantitative end points used to assess antitumor activity included % Increased Life Span (% ILS), Tumor Cell Kill (Log10 kill), and Tumor Growth Inhibition (T/C). […]
(§4) Tumors were measured with a caliper once or twice weekly (as needed) until either tumors exceeded 1600 mg or cure was assured. […] When the control group tumors reached approximately 750-1500 mg in size (median of group), the median tumor weight of each group was determined (including zeros). […] The % T/C was calculated from the following formula for solid murine tumor models: [formula] where T and C are median tumor weights of the treatment and control groups, respectively. […] By convention the T/C value for the mammary carcinoma MX-1 models is calculated by the parameter of change in tumor weight .

[2] = In vivo antitumor assay, LC12(sc); conditions: mouse, in vivo, drug iv, qd 3,5, exp 1161, MTD not achieved, maximum dose tested
Text: as §1, §2, §3, §4

[3] = In vivo antitumor assay, Mam16C/ADR; conditions: mouse, in vivo, drug iv, qd 1,3,5, exp 1120A, footnote 2: 2 lower doses equally active to modestly more active
Text: as §1
as §2, with “Repository.” for “Repository. Murine tumors were maintained in the mouse strain of origin and were transplanted in the appropriate F1 hydrid (or the strain of origin) for therapy trials.”
as §3
(§5) The log10 cell kill was calculated from the following formula: [formula] where T-C is the tumor difference in the median day of death between the treated (T) and the control (C) groups and Td is the tumor doubling time (in days), the latter estimated from the best fit straight line from a log-linear growth plot of the control-group tumors in exponential growth. […]
(§6) Tumors were measured with a caliper once or twice weekly (as needed) until either tumors exceeded 1600 mg or cure was assured. […] When the control group tumors reached approximately 750-1500 mg in size (median of group), the median tumor weight of each group was determined (including zeros). […] The % T/C was calculated from the following formula for solid murine tumor models: [formula] where T and C are median tumor weights of the treatment and control groups, respectively. […]

[4] = In vivo antitumor assay, P388(iv); conditions: mouse, in vivo, drug iv, qd 1-3, exp 1155A
Text: as §1, §2, §3
Endpoints were calculated as follows: [formula] where Dt is the median day of death for treated and Dc is the median day of death for control groups. […] Minimum quantitative activity limits for additional P388 models (e.g. P388/ADR and P388, IV) have not been defined. […]
as §5

[5] = tested on: mammary ductal adenocarcinoma No. 16/C (Mam16C); test: In vivo antitumor assay, Mam16C(sc); conditions: drug iv
Text: as §1
(§7) Tumors: Murine Tumor: P388 and an adriamycin-resistant (ADR) subline P388/ADR leukemia and the following transplantable solid tumors of mice were used for in vivo testing: B16 melanoma (B16), pancreatic ductal adenocarcinoma No. 03 (Pane 03), colon adenocarcinoma No. 38 (colo 38), lung carcinoma No. 12 (LC 12), mammary ductal adenocarcinoma No. 16/C (Mam16C) and an adriamycin-resistant subline Mam16C/ADR. Human tumor: A single human tumor, mammary carcinoma MX-1 was used for in vivo testing. All tumors are in the Developmental Therapeutics Program frozen tumor respository, maintained by the Biological Testing Branch, Frederick Maryland. Each has a detailed description, code identification number, and list of references at the National Tumor Repository. Murine tumors were maintained in the mouse strain of origin and were transplanted in the appropriate F1 hydrid (or the strain of origin) for therapy trials. Human mammary carcinoma MX-1 (MX1) was maintained as a subcutaneous implant in either athymic Swiss (Cr: NIH(S)-nu) or athymic random bred (NCR-nu) mice and transplanted in NCR-nu for therapy trials.
(§8) Chemotherapy: For pancreatic ductal adenocarcinoma No. 3, colon adenocarcinoma No. 38 (colo 38), lung carcinoma No. 12 LC 12) and both adriamycin-sensitive (RP) and-resistant (ADR) mammary ductal adenocarcinoma No. 16 (Mam16) tumors, bilateral tumor implants were used to help ensure a more uniform tumor burden per mouse (thus reducing the requirement for greater numbers of mice per group). The animals necessary to begin an experiment were pooled, implanted bilaterally s.c. on day zero with 30-60 mg tumor fragments using a 12-gauge trocar, and again pooled before randomization to the various treatment and control groups. Chemotherapy was started within three days after tumor implantation while the number of cells per mouse was relatively small (1×10^7 -1×10^8 cells).
(§9) Quantitative end points used to assess antitumor activity included % Increased Life Span (% ILS), Tumor Cell Kill (Log10 kill), and Tumor Growth Inhibition (T/C). Long Term Survivors (45 or 60 day) were excluded from calculations of %ILS and Tumor Cell Kill.
(§10) The log10 cell kill was calculated from the following formula: [formula] where T-C is the tumor difference in the median day of death between the treated (T) and the control (C) groups and Td is the tumor doubling time (in days), the latter estimated from the best fit straight line from a log-linear growth plot of the control-group tumors in exponential growth. The conversion of the T-C values to log10 cell kill is possible because the Td for tumors regrowing post-treatment approximated the Td values of the tumors in untreated control mice.
as §6

[6] = In vivo antitumor assay, Mam16C(sc); conditions: mouse, in vivo, drug iv, qd 1-4, exp 1132
Text: as §1, §7, §8, §9, §10, §6

Cc1cc(-c2c(F)cc3c4nn(CCN(C)C)c(=O)c-4cn(C4CC4)c3c2F)cc(C)n1.O=C(O)/C=C/C(=O)O [Example 1, 5-Cyclopropyl-6,8-difluoro-2,5-dihydro-2-[2-(dimethylamino)-ethyl]-7-(2,6-dimethyl-4-pyridinyl)-3H-pyrazolo[4,3-c]quinolin-3-one (E)-2-butendioate (1:1)]
Log Kill [1]: 0.76 | T/C % [1]: 25% | MTD [2]: > 35 mg/kg | MTD [3]: 58 mg/kg | MTD [4]: 37 mg/kg | Log Kill ([5]; qd 1,3,5, exp 1142A): 1.9 | T/C % ([5]; qd 1,3,5, exp 1142A): 18% | Log Kill ([5]; qd 1-4, exp 1132): 1.3 | T/C % ([5]; qd 1-4, exp 1132): 7% | MTD [6]: 43 mg/kg
